Source: US20240116951A1, “HETEROCYCLIC COMPOUNDS AND USES THEREOF” (Kumquat Biosciences Inc., priority 2022, published 2024)
pIC50: −log10 of the molar value.

Legend:
Assay type in all cases: binding
[1] = biological target: T1, KRAS G12S (Homo sapiens, UniProt P01116, G12S); assay: HTRF assay of K-Ras G12S interaction with SOS1 (PPI-HTRF); conditions: 5 nM KRAS G12S, read-out: PPI-HTRF-5 nM KRAS G12S
T1 construct: made in house; host or cells: E. coli, e.g. BL21 (DE3)
Procedure, shortened: (§1)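 HTRF on GST-K-Ras/His-hSOS1 was measured after ≥10 min in pH 7.4 HEPES buffer. IC50 values were derived from the ratiometric emission signal.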

[2] = biological target: T2, KRAS G12D (Homo sapiens, UniProt P01116, G12D); assay: HTRF assay of K-Ras G12D interaction with SOS1 (PPI-HTRF); conditions: HTRF, 5 nM KRAS G12D; read-out: PPI-HTRF-5 nM KRAS G12D
T2 construct: made in house; host or cells: E. coli, e.g. BL21 (DE3)
T2 sequence (P01116 1-188 isoform P01116-2 G12D): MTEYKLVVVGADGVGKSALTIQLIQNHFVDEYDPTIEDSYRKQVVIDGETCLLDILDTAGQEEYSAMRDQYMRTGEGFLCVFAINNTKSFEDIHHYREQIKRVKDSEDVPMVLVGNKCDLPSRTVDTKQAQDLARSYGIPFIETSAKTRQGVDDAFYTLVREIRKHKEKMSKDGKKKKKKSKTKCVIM
Procedure, shortened: as §1

[3] = biological target: T3, KRAS WT (Homo sapiens, UniProt P01116); assay: HTRF assay of wildtype K-Ras interaction with SOS1 (PPI-HTRF); conditions: HTRF, 5 nM KRAS WT; read-out: PPI-HTRF-5 nM KRAS WT
T3 construct: made in house; host or cells: E. coli, e.g. BL21 (DE3)
T3 sequence (P01116 1-188 isoform P01116-2): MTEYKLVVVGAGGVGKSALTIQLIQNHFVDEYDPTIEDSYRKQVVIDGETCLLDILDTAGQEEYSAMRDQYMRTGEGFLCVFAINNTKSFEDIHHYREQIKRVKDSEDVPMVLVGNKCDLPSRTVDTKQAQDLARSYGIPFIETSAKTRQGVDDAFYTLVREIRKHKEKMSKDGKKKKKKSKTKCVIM
Procedure, shortened: as §1

T1 sequence (P01116 1-188 isoform P01116-2 G12S): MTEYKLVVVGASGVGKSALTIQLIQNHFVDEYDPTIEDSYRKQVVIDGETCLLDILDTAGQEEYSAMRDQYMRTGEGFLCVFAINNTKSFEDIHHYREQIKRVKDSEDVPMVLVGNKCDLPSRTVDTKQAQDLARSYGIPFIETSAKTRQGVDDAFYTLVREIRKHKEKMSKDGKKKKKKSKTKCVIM

SMILES | pIC50 [1] | pIC50 [2] | pIC50 [3]
CN1CCC[C@H]1COc1nc2c(c(N3CCC4(CCN4C(=O)n4cncn4)C3)n1)CCN(c1cccc3cccc(Cl)c13)C2 (stereo partly drawn) [Compound 245, (6-(7-(8-chloronaphthalen-1-yl)-2-(((S)-1-methylpyrrolidin-2-yl)methoxy)-5,6,7,8-tetrahydropyrido[3,4-d]pyrimidin-4-yl)-1,6-diazaspiro[3.4]octan-1-yl)(1H-1,2,4-triazol-1-yl)methanone] | < 5.30 | < 5.30 | < 5.30
N#Cc1c(N)sc2c(F)ccc(-c3c(Cl)cc4c(N5CCC6(CCN6C(=O)n6ccnn6)C5)nc(OC[C@@]56CCCN5C[C@H](F)C6)nc4c3F)c12 (stereo partly drawn) [Compound 248, 4-(4-(1-(1H-1,2,3-triazole-1-carbonyl)-1,6-diazaspiro[3.4]octan-6-yl)-6-chloro-8-fluoro-2-(((2R,7aS)-2-fluorotetrahydro-1H-pyrrolizin-7a(5H)-yl)methoxy)quinazolin-7-yl)-2-amino-7-fluorobenzo[b]thiophene-3-carbonitrile] | > 5.30 | > 5.30 | > 5.30
CN1CCC[C@H]1COc1nc(N2CCC3(CC2)NC(=O)NC3=O)c2cc(Cl)c(-c3cccc4sc(N)nc34)c(F)c2n1 [Compound 249, 8-(7-(2-aminobenzo[d]thiazol-4-yl)-6-chloro-8-fluoro-2-(((S)-1-methylpyrrolidin-2-yl)methoxy)quinazolin-4-yl)-1,3,8-triazaspiro[4.5]decane-2,4-dione] | > 5.30 | > 5.30 | > 5.30
Nc1nc2c(-c3ccc4c(N5CC6(CNCCN6)C5)nc(OC[C@@]56CCCN5C[C@H](F)C6)nc4c3F)ccc(F)c2s1 [Compound 253, 7-fluoro-4-(8-fluoro-2-(((2R,7aS)-2-fluorotetrahydro-1H-pyrrolizin-7a(5H)-yl)methoxy)-4-(2,5,8-triazaspiro[3.5]nonan-2-yl)quinazolin-7-yl)benzo[d]thiazol-2-amine] | < 5.30 | < 5.30 | > 5.30
COCC(=O)N1CCC12CCN(c1nc(O[C@@H](C)[C@@H]3CCCN3C)nc3c(F)c(-c4ccc(F)c5sc(N)c(C#N)c45)c(Cl)cc13)C2 (stereo partly drawn) [Compound 254, 2-amino-4-(6-chloro-8-fluoro-4-(1-(2-methoxyacetyl)-1,6-diazaspiro[3.4]octan-6-yl)-2-((S)-1-((S)-1-methylpyrrolidin-2-yl)ethoxy)quinazolin-7-yl)-7-fluorobenzo[b]thiophene-3-carbonitrile] | > 5.30 | > 5.30 | > 5.30
C[C@H]1CN(C(=O)n2cnc(F)n2)[C@]12CCN(c1nc(OC[C@@]34CCCN3C[C@H](F)C4)nc3c(F)c(-c4ccc(F)c5sc(N)c(C#N)c45)c(Cl)cc13)C2 [Compound 255, 2-amino-4-(6-chloro-8-fluoro-4-((3S,4R)-1-(3-fluoro-1H-1,2,4-triazole-1-carbonyl)-3-methyl-1,6-diazaspiro[3.4]octan-6-yl)-2-(((2R,7aS)-2-fluorotetrahydro-1H-pyrrolizin-7a(5H)-yl)methoxy)quinazolin-7-yl)-7-fluorobenzo[b]thiophene-3-carbonitrile] | > 5.30 | > 5.30 | > 5.30
C#Cc1c(F)ccc2cc(O)cc(-c3ncc4c(N5CCC6(CCN6C(=O)n6cncn6)C5)nc(O[C@@H](C)[C@@H]5CCCN5C)nc4c3F)c12 (stereo partly drawn) [Compound 256, (6-(7-(8-ethynyl-7-fluoro-3-hydroxynaphthalen-1-yl)-8-fluoro-2-((S)-1-((S)-1-methylpyrrolidin-2-yl)ethoxy)pyrido[4,3-d]pyrimidin-4-yl)-1,6-diazaspiro[3.4]octan-1-yl)(1H-1,2,4-triazol-1-yl)methanone] | > 5.30 | < 5.30 | < 5.30
Nc1nc2c(-c3c(F)c4nc(OC[C@@]56CCCN5C[C@H](F)C6)nc(N5CCC6(CCN6C(=O)n6cncn6)C5)c4c(=O)n3C3CC3)ccc(F)c2s1 (stereo partly drawn) [Compound 257, 4-(1-(1H-1,2,4-triazole-1-carbonyl)-1,6-diazaspiro[3.4]octan-6-yl)-7-(2-amino-7-fluorobenzo[d]thiazol-4-yl)-6-cyclopropyl-8-fluoro-2-(((2R,7aS)-2-fluorotetrahydro-1H-pyrrolizin-7a(5H)-yl)methoxy)pyrido[4,3-d]pyrimidin-5(6H)-one] | > 5.30 | > 5.30 | > 5.30
N#Cc1c(N)sc2c(F)ccc(-c3c(Cl)cc4c(N5CCC6(COCCN6C(=O)C6CC6(F)F)C5)nc(OC[C@@]56CCCN5C[C@H](F)C6)nc4c3F)c12 (stereo partly drawn) [Compound 258, 2-amino-4-(6-chloro-4-(6-(2,2-difluorocyclopropane-1-carbonyl)-9-oxa-2,6-diazaspiro[4.5]decan-2-yl)-8-fluoro-2-(((2R,7aS)-2-fluorotetrahydro-1H-pyrrolizin-7a(5H)-yl)methoxy)quinazolin-7-yl)-7-fluorobenzo[b]thiophene-3-carbonitrile] | > 5.30 | > 5.30 | > 5.30
Nc1nc2c(-c3c(Cl)cc4c(N5CC6(CCN6)C5)nc(OC[C@@]56CCCN5C[C@H](F)C6)nc4c3F)ccc(F)c2s1 [Compound 259, 4-(6-chloro-8-fluoro-2-(((2R,7aS)-2-fluorotetrahydro-1H-pyrrolizin-7a(5H)-yl)methoxy)-4-(1,6-diazaspiro[3.3]heptan-6-yl)quinazolin-7-yl)-7-fluorobenzo[d]thiazol-2-amine] | > 5.30 | > 5.30 | > 5.30
N#Cc1c(N)sc2c(F)ccc(-c3c(Cl)cc4c(N5CCC6(CCCN6C(=O)n6cncn6)C5)nc(OC[C@@]56CCCN5C[C@H](F)C6)nc4c3F)c12 (stereo partly drawn) [Compound 261, 4-(4-(1-(1H-1,2,4-triazole-1-carbonyl)-1,7-diazaspiro[4.4]nonan-7-yl)-6-chloro-8-fluoro-2-(((2R,7aS)-2-fluorotetrahydro-1H-pyrrolizin-7a(5H)-yl)methoxy)quinazolin-7-yl)-2-amino-7-fluorobenzo[b]thiophene-3-carbonitrile] | > 5.30 | > 5.30 | > 5.30
N#Cc1c(N)sc2c(F)ccc(-c3c(Cl)cc4c(N5CCC6(CC5)CCN6C(=O)[C@@H]5N[C@H]5C5CC5)nc(OC[C@@]56CCCN5C[C@H](F)C6)nc4c3F)c12 [Compound 262, 2-amino-4-(6-chloro-4-(1-((2R,3S)-3-cyclopropylaziridine-2-carbonyl)-1,7-diazaspiro[3.5]nonan-7-yl)-8-fluoro-2-(((2R,7aS)-2-fluorotetrahydro-1H-pyrrolizin-7a(5H)-yl)methoxy)quinazolin-7-yl)-7-fluorobenzo[b]thiophene-3-carbonitrile] | > 5.30 | > 5.30 | > 5.30
C[C@H]1N(c2nc(OC[C@@]34CCCN3C[C@H](F)C4)nc3c(F)c(-c4ccc(F)c5sc(N)c(C#N)c45)c(Cl)cc23)CC[C@@]12CCN2C(=O)n1cnc(Cl)n1 [Compound 263, 2-amino-4-(6-chloro-4-((4R,5R)-1-(3-chloro-1H-1,2,4-triazole-1-carbonyl)-5-methyl-1,6-diazaspiro[3.4]octan-6-yl)-8-fluoro-2-(((2R,7aS)-2-fluorotetrahydro-1H-pyrrolizin-7a(5H)-yl)methoxy)quinazolin-7-yl)-7-fluorobenzo[b]thiophene-3-carbonitrile] | > 5.30 | > 5.30 | > 5.30
